These results are taken from publication PMC9029746, “Discovery of Azaindolin-2-One as a Dual Inhibitor of GSK3β and Tau Aggregation with Potential Neuroprotective Activity” (Pharmaceuticals, 2022).

The target in one experiment is T1, human recombinant GSK3β (Homo sapiens, UniProt P49841).
T1 construct: purchased Promega Corporation, Madison, WI, USA (GSK3β Kinase Enzyme System)
Description: GSK3β inhibition assay (GSK3β Kinase Enzyme System, ADP-Glo Kinase Assay). Format: biochemical. The note with it: for inhibition at 10 µM: read-out: percentage inhibition of GSK3β. The protocol: Screening of GSK3β inhibition activity for our new library was conducted using the […] luminescence assay to determine how much ATP is reduced after a kinase reaction.
According to the manufacturer’s protocol, the assay was conducted using GSK3β Kinase Enzyme System and ADP-Glo Kinase Assay (Promega Corporation, Madison, WI, USA) in 384-well plates. The kinase reaction was performed at room temperature using 2 ng/μL of human recombinant GSK3β, 0.2 μg/μL of GSK3 substrate ([…] (pS) EDEEE; amino acids 636–661), and 25 μM ATP in 4X kinase buffer containing 50 μM DTT. The compounds were added to enzyme solution and incubated for 2 h at room temperature. Then, kinase activity was quantified using the ADP-Glo Kinase Assay as previously described.
For orientation: In ADP-Glo the light output rises with the ADP produced.

For another experiment, the target named is tau fibrils. Also on record: method as in PMID 17761424. The note with it: cited from earlier work.
The next experiment addresses alpha-synuclein (α-syn). Also on record: method as in PMID 17761424. The note with it: cited from earlier work.
A further experiment concerns the target beta-amyloid (Aβ). Set-up: method as in PMID 17761424. The note with it: cited from earlier work.
In the next experiment the test system is PBMC. As to the kind of experiment: MTT assay, cytotoxicity on normal blood cells. Format: cell-based. The note with it: Homo sapiens, 72 h, read-out: IC50 (µM) after 72 h Drug Treatment, PBMC. The protocol: (§1) The human cervical carcinoma cell line HeLa, obtained from the American Type Culture Collection (ATCC), was cultured in Dulbecco’s modified Eagle’s medium (DMEM) supplemented with 5% heat-inactivated fetal bovine serum (FBS). The human glioblastoma cell line U251 (obtained from ATCC), colon carcinoma cell line HCT116 [provided by the RIKEN BRC through the National Bio-Resource Project of the MEXT/AMED, Japan (RCB2979)], and human melanoma cell line A375, obtained from ATCC, were cultured in DMEM supplemented with 10% heat-inactivated FBS. The human chronic myelogenous leukemia cell line K562 and human peripheral blood mononuclear cells (PBMC), both cells obtained from ATCC, were cultured in RPMI 1640 supplemented with 10% heat-inactivated FBS described previously.
(§2) Cells were seeded in a 24-well plate, and the compounds were added. After incubation for 3 days, a solution (1.1 mg/mL) of 3-(4,5-dimethylthiazol-2-yl)-2,5-diphenyl-2H-tetrazolium bromide (MTT, from DOJINDO Laboratories, Kumamoto, Japan) was added, and MTT assay was performed as previously described.

In experiment [1] the target is T2, tau 2N4R isoform carrying P301L mutation (Homo sapiens, UniProt P10636, P618L).
T2 construct: host or cells: HeLa cells
T2 sequence (P10636 1-441 isoform P10636-8 P301L): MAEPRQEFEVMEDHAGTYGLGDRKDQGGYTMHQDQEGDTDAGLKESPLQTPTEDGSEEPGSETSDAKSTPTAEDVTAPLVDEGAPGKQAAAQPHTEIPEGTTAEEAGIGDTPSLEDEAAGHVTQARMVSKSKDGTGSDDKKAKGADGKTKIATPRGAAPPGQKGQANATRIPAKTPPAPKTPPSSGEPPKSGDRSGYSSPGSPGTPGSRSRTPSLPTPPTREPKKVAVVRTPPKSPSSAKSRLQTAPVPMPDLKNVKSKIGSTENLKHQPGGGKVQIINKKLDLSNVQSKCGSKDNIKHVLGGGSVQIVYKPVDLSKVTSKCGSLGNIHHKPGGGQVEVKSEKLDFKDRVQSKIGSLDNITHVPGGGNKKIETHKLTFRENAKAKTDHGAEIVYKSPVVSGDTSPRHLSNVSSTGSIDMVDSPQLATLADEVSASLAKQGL
As to the kind of experiment: Tau aggregation inhibition in a cell model of tauopathy (Tau Aggregation Assay Kit, HeLa cells). Format: cell-based. The note with it: for anti-tau aggregation effect: Hela cells, seed+; for inhibitory activity against tau aggregation: 1, 3, 10, and 30 µM overall. The protocol:
Aggregation of Tau is observed using Hela cells transduced with the expression vector of tau 2N4R isoform carrying P301L mutation and fibrils of tau protein with P301L mutation as seed. We tested the anti-aggregation effects of (E)-2f and 3a at four different concentrations, namely (1 µM, 3 µM, 10 µM, 30 µM), the measurements combined with negative seed (negative control = normal aggregation level), and positive seed (positive control = AD aggregation levels). In other words, seed— and + indicate the absence and presence of fibrils of tau protein with P301L mutation as seed, respectively.
Figure 9 Anti-tau aggregation activity of compounds (E)-2f and 3a at 1, 3, 10, and 30 µM concentrations. (A) Tau proteins were stained with green fluorescence in HeLa cells transfected with the expression vector of tau 2N4R isoform carrying P301L mutation and incubated with the compounds. Microscopic observation was performed, and photos were shown on a 100 µm scale. Seed negative (seed−) and seed positive (seed+) indicate the absence and presence of fibrils of tau protein with P301L mutation, respectively. (B) Relative green spots per area (%) after exposure of Hela cells to compounds (E)-2f and 3a are compared to seed positive (seed+ = 100%). ImageJ counted more than 100 spots in the same area in each sample. *: denotes significant difference from control (seed+) at p < 0.05, **: denotes significant difference from control (seed+) at p < 0.01.
According to the manufacturer’s protocol, the assay was performed using Tau Aggregation Assay Kit (Cosmo Bio, Tokyo, Japan [catalog number: TAU01]). Briefly, HeLa cells were transfected with pCMV-Tau(2N4R)-P301L (20 ng) using Lipofectamine 3000 (ThermoFisher Scientific, Waltham, MA, USA) and treated with F-Tau (RD)-P301L (fibrils of tau protein with P301L mutation as seed, included in the assay kit). Drugs were added after 6 h, and the cells were incubated for 1 day. Next, immunostaining was performed basically as previously described. Tau proteins were stained with green fluorescence. In this staining, a TAU antibody (Proteintech, Rosemont, IL, USA [catalog number: 10274-1-AP]) was used as the first antibody, and goat anti-rabbit IgG (H + L) highly cross-adsorbed secondary antibody, Alexa Fluor 488 ThermoFisher Scientific) was used as the second antibody. An All-in-One Fluorescence Microscope BIOREVO BZ-9000 (Keyence, Osaka, Japan) was used as the microscope. ImageJ counted more than 100 spots in the same area in each sample [40, 41].

The subject of a further experiment is total tau. As to the kind of experiment: Western blot analysis of total tau in Hela cells. Format: cell-based, human. The note with it: 10 and 30 µM, 24 h, GAPDH normalization. The protocol: Western blot analysis was then used to confirm the amount of the total tau in Hela cells used for microscopic observation. The lysate of Hela cells, after incubation with compounds (E)-2f and 3a at 10 and 30 µM concentrations, were analyzed by immunoblotting using the same anti-Tau antibody (Figure S42). ImageJ was used to quantify the total tau at each concentration and compared to the total tau level of Hela cells with positive seed (seed+) alone as a control.
Figure 10 Effect of compounds (E)-2f and 3a on Tau levels. HeLa cells transfected with the expression vector of tau 2N4R isoform carrying P301L mutation and incubated with compounds (E)-2f and 3a at 10 and 30 µM concentrations for 24 h. Then Hela cells were lysed, and the lysates were analyzed by Western blotting. The relative amount of total tau expressed in the total cell lysate of Hela cells of each lane was quantified by ImageJ. The total tau level of Hela cells with positive seed (seed+) alone was calculated from total tau after GAPDH normalization and is presented as Control (1.00).
Western blot analysis was performed by lysing Hela cells in PBS/Laemmli sample buffer (1:1) as described previously. […] Chemiluminescence detected immunoreactivity using ImmunoStar LD (FUJIFILM-Wako, Osaka, Japan).

Another experiment deals with HCT-116. Description: MTT assay, cytotoxicity. The note with it: Homo sapiens, HCT-116, 72 h; read-out: IC50 (µM) after 72 h Drug Treatment, HCT-116. The class given is cell-based. As for the experimental part: as §1, §2
For another experiment, the system named is A375. As to the kind of experiment: MTT assay, cytotoxicity. Format: cell-based. The note with it: Homo sapiens, A-375, 72 h; read-out: IC50 (µM) after 72 h Drug Treatment, A375. The protocol:
as §1, §2
A general note: Tetrazolium assays rely on reduction of a dye to a coloured formazan, in cell work by metabolically active cells.

A further experiment concerns K562. As to the kind of experiment: MTT assay, cytotoxicity. The class given is cell-based. The note with it: Homo sapiens, K562, 72 h; read-out: IC50 (µM) after 72 h Drug Treatment, K562. As for the experimental part:
as §1, §2

The test system of the next experiment is U251. As to the kind of experiment: MTT assay, cytotoxicity. Format: cell-based. The note with it: Homo sapiens, U-251, 72 h; read-out: IC50 (µM) after 72 h Drug Treatment, U251. The protocol:
as §1, §2

The test system of a further experiment is GSK3β. The note with it: cited from earlier work.

“Also recorded” adds a separate entry of the source. Like-named read-outs stand apart in the source and are kept apart here.

As usually defined, the IC50 is the concentration that inhibits the measured activity by half. What is called Ki is the dissociation constant of the complex between target and ligand, obtained from inhibition or displacement. The inhibition is the drop in the measured response relative to a control, in per cent.

T1 sequence (P49841 whole entry): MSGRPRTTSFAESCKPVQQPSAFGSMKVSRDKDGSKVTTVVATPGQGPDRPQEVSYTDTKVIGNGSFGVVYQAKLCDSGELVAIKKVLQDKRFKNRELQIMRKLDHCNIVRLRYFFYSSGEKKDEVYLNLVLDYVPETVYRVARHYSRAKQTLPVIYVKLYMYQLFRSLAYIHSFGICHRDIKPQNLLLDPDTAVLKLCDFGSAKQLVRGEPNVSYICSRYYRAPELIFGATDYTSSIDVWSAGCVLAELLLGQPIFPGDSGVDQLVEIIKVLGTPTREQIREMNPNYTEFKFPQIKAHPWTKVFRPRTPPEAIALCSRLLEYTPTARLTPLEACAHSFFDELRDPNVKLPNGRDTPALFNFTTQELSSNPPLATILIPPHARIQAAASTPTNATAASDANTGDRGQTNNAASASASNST

Regarding `CN(C)c1ccnc(/C=C2/C(=O)Nc3ncccc32)c1` [(E)-3c], on human recombinant GSK3β (read-out: IC50 (µM) GSK3β), the IC50 amounted to 3.2 µM.

In the case of `CN(C)c1ccc(/C=C2/C(=O)Nc3ccccc32)cc1` [VII], the Ki on tau fibrils is 95 nM; at alpha-synuclein (α-syn), 490 nM; on beta-amyloid (Aβ), 140 nM.

`O=C1Nc2ncccc2/C1=C\c1ccccn1` [(E)-2f, (E)-3-(pyridin-2-ylmethylene)-1,3-dihydro-2H-pyrrolo [2,3-b]pyridin-2-one]: the IC50 with PBMC is over 300 µM; at human recombinant GSK3β (read-out: IC50 (µM) GSK3β), 1.7 µM; in the experiment on HCT-116, 12.8 µM; in the experiment on A375, 14 µM; in the experiment on K562, 13.8 µM; in the experiment with U251 it was 28.2 µM. The anti-tau aggregation effect result is “no efficacy” in experiment [1] (1 µM), “moderate efficacy” in [1] (3 µM), “significant anti-aggregation effect” in experiment [1] (10 µM) and “completely protected Hela cells from tau aggregates” in experiment [1] (30 µM). In addition, the “inhibitory activity against tau aggregation” value in experiment [1] is given as “pronounced tau anti-aggregation effect; also recorded: concentration-dependent inhibitory activity”. In addition, the “total tau level compared to Hela cells with seed+ alone” value in the experiment with total tau is “little or no difference; also recorded: minimal effect”. In addition, the inhibition at 10 µM on human recombinant GSK3β is 76.4%.

`O=C1Nc2cc(F)ccc2/C1=C\c1ccccn1` [(E)-2e, (E)-6-fluoro-3-(pyridin-2-ylmethylene)indolin-2-one]: on human recombinant GSK3β, the inhibition at 10 µM is under 30%. Moreover, the IC50 on human recombinant GSK3β (read-out: IC50 (µM) GSK3β) was over 10 µM.

As for `Cn1cc(-c2[nH][nH]c(=O)c2-c2cn(C)c3ccccc23)c2ccccc21` [III], the IC50 with GSK3β (in vitro) is 0.034 µM.

In the case of `O=C1Nc2ccccc2/C1=C\c1ccccn1` [(E)-2a, (E)-3-(pyridin-2-ylmethylene)indolin-2-one], the IC50 is 0.00416 µM in the experiment on GSK3β and over 10 µM at human recombinant GSK3β.

As for `O=C1Nc2ncccc2/C1=C/c1ccncc1` [(Z)-3d], the IC50 on human recombinant GSK3β (read-out: IC50 (µM) GSK3β) is 5.9 µM.

Turning to `O=C1Nc2ccc(F)cc2/C1=C\c1ccccn1` [(E)-2d, (E)-5-fluoro-3-(pyridin-2-ylmethylene)indolin-2-one], the inhibition at 10 µM at human recombinant GSK3β was under 30%. For the same compound, the IC50 at human recombinant GSK3β (read-out: IC50 (µM) GSK3β) was over 10 µM.

Consider `Clc1cc(-c2c[nH]c3ncccc23)cc(NC2CCCCC2)n1` [Native ligand], for which the Ki on GSK3β is 0.058 µM.

Turning to `O=C1Nc2ccc(Cl)cc2/C1=C\c1ccccn1` [(E)-2b, (E)-5-chloro-3-(pyridin-2-ylmethylene)indolin-2-one], the concentration for half-maximal inhibition (IC50) on human recombinant GSK3β (read-out: IC50 (µM) GSK3β) was over 10 µM.

On to `COc1ccc2c(c1)c(/C=C1\SC(=O)NC1=O)cn2C` [IV], for which the IC50 in the experiment with GSK3β is 0.89 µM.

Regarding `O=C1NC(=S)S/C1=C\c1cccc(-c2ccc3c(c2)OCO3)n1` [V], the IC50 in the experiment with GSK3β was 1.6 µM.

Consider `O=C1Nc2cc(Cl)ccc2/C1=C\c1ccccn1` [(E)-2c, (E)-6-chloro-3-(pyridin-2-ylmethylene)indolin-2-one], for which the inhibition at 10 µM on human recombinant GSK3β is 45%. At human recombinant GSK3β (read-out: IC50 (µM) GSK3β), the half-inhibitory concentration (IC50) was over 10 µM.

As to `CCN(CC)c1ccc(/C=C2/C(=O)Nc3ncccc32)cc1` [(E)-3b], the IC50 on human recombinant GSK3β (read-out: IC50 (µM) GSK3β) was determined as 3 µM.

With `CN(C)c1ccc(C=C2C(=O)Nc3ncccc32)cc1` (mixture of isomers) [Compound 3a, (E/Z)-3-(4-(dimethylamino)benzylidene)-1,3-dihydro-2H-pyrrolo [2,3-b]pyridin-2-one], the IC50 in the experiment on PBMC is 94.5 µM; in the experiment on HCT-116 it was 9.8 µM; with A375, over 100 µM; in the experiment on K562 it was 4.7 µM; with U251 it was 10.3 µM. For the same compound, the anti-tau aggregation effect result in experiment [1] (30 µM) is “completely protected Hela cells from tau aggregates”. Further, in experiment [1], the “inhibitory activity against tau aggregation” value was “concentration-dependent inhibitory activity”. Further, the “total tau level compared to Hela cells with seed+ alone” value in the experiment with total tau was “little or no difference; also recorded: minimal effect”.

As for `CN(C)c1ccc(/C=C2\C(=O)Nc3ncccc32)cc1` [(Z)-3a], the IC50 at human recombinant GSK3β (read-out: IC50 (µM) GSK3β) worked out at 1.9 µM.

On to `O=C1Nc2ncccc2/C1=C\c1ccncc1` [(E)-3d], for which the IC50 on human recombinant GSK3β (read-out: IC50 (µM) GSK3β) was found to be 5.9 µM.

Turning to `CCN(CC)c1ccc(/C=C2\C(=O)Nc3ncccc32)cc1` [(Z)-3b], the half-inhibitory concentration (IC50) at human recombinant GSK3β (read-out: IC50 (µM) GSK3β) worked out at 3 µM.
